From ChEMBL document CHEMBL1201862, “PubChem BioAssay data set” (2004)
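Growth conditions: 96-well plates. Treatment: test compound, 48 hours, 5 concentrations. Analysis: linear interpolation between bracketing concentrations; unreached endpoints set to highest concentration. Abbreviation: GI50, concentration required for 50% inhibition of growth.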 Active and inactive are the calls of the source. Cut-off read from the data, not from the text of the source: active = GI50 up to about 1.1 µM and inactive = higher.

Experiments:
Assay in all cases: inhibition of tumour cell growth, NCI panel, 48 h
[1] = tested on: SN12C
[2] = tested on: UO-31
[3] = tested on: SNB-19
[4] = tested on: M14
[5] = tested on: LOX IMVI
[6] = tested on: NCI-H460
[7] = tested on: UACC-62
[8] = tested on: EKVX
[9] = tested on: NCI-H522
[10] = tested on: TK-10
[11] = tested on: HCT-116
[12] = tested on: DU-145
[13] = tested on: CAKI-1
[14] = tested on: IGROV-1
[15] = tested on: MCF7
[16] = tested on: SNB-75
[17] = tested on: HCT-15
[18] = tested on: T47D
[19] = tested on: NCI-H226
[20] = tested on: SF-295
[21] = tested on: MDA-MB-435
[22] = tested on: 786-0
[23] = tested on: OVCAR-4
[24] = tested on: Hs-578T
[25] = tested on: NCI-H23
[26] = tested on: HT-29
[27] = tested on: SR
[28] = tested on: RPMI-8226
[29] = tested on: NCI/ADR-RES
[30] = tested on: SW-620
[31] = tested on: OVCAR-8
[32] = tested on: HOP-62
[33] = tested on: SK-MEL-28
[34] = tested on: MOLT-4
[35] = tested on: SF-268
[36] = tested on: A549
[37] = tested on: ACHN
[38] = tested on: MDA-MB-231
[39] = tested on: PC-3
[40] = tested on: BT-549
[41] = tested on: COLO 205
[42] = tested on: OVCAR-3
[43] = tested on: UACC-257
[44] = tested on: Malme-3M
[45] = tested on: SK-MEL-5
[46] = tested on: SF-539
[47] = tested on: SK-OV-3
[48] = tested on: HOP-92
[49] = tested on: MDA-N
[50] = tested on: OVCAR-5
[51] = tested on: U-251
[52] = tested on: A498
[53] = tested on: HL-60
[54] = tested on: CCRF-CEM
[55] = tested on: RXF 393
[56] = tested on: K562
[57] = tested on: HCC 2998
[58] = tested on: SK-MEL-2
[59] = tested on: KM12

Q: `O=[N+]([O-])c1ccc(-c2nc3cc(Cl)ccc3[nH]2)cc1` was tested. Which GI50 [1] did it give?
A: Its GI50 is 43.6 µM (inactive).

Q: And the GI50 [2]?
A: The GI50 was 26.1 µM (inactive).

Q: What about the GI50 [3] of the same molecule?
A: Its GI50 is 78.5 µM (inactive).

Q: What about the GI50 [4] of the same molecule?
A: Its GI50 is 60.7 µM (inactive).

Q: And the GI50 [5]?
A: Its GI50 is 46.2 µM (inactive).

Q: What about the GI50 [6] of the same molecule?
A: The GI50 was 37.2 µM (inactive).

Q: And the GI50 [7]?
A: The GI50 was 81.1 µM (inactive).

Q: And the GI50 [8]?
A: Its GI50 is 69.5 µM (inactive).

Q: And the GI50 [9]?
A: Its GI50 is 14.4 µM (inactive).

Q: What about the GI50 [10] of the same molecule?
A: Its GI50 is > 100 µM (inactive).

Q: And the GI50 [11]?
A: Its GI50 is 49.2 µM (inactive).

Q: And the GI50 [12]?
A: The GI50 was 72.1 µM (inactive).

Q: And the GI50 [13]?
A: Its GI50 is 62.7 µM (inactive).

Q: And the GI50 [14]?
A: Its GI50 is 81.3 µM (inactive).

Q: What about the GI50 [15] of the same molecule?
A: Its GI50 is 27.3 µM (inactive).

Q: What about the GI50 [16] of the same molecule?
A: The GI50 was 73.5 µM (inactive).

Q: And the GI50 [17]?
A: Its GI50 is 52 µM.

Q: And the GI50 [18]?
A: The GI50 was 39.1 µM (inactive).

Q: And the GI50 [19]?
A: Its GI50 is 82.6 µM (inactive).

Q: What about the GI50 [20] of the same molecule?
A: The GI50 was 39.2 µM (inactive).

Q: And the GI50 [21]?
A: The GI50 was 41.6 µM (inactive).

Q: What about the GI50 [22] of the same molecule?
A: The GI50 was 86.7 µM (inactive).

Q: What about the GI50 [23] of the same molecule?
A: Its GI50 is 95.5 µM (inactive).

Q: And the GI50 [24]?
A: The GI50 was > 100 µM (inactive).

Q: What about the GI50 [25] of the same molecule?
A: Its GI50 is 42.5 µM (inactive).

Q: And the GI50 [26]?
A: Its GI50 is 51.4 µM (inactive).

Q: And the GI50 [27]?
A: The GI50 was 34.6 µM (inactive).

Q: And the GI50 [28]?
A: Its GI50 is 25.5 µM (inactive).

Q: What about the GI50 [29] of the same molecule?
A: The GI50 was 31.3 µM (inactive).

Q: What about the GI50 [30] of the same molecule?
A: The GI50 was 62.4 µM (inactive).

Q: And the GI50 [31]?
A: Its GI50 is 59.6 µM (inactive).

Q: And the GI50 [32]?
A: Its GI50 is > 100 µM (inactive).

Q: And the GI50 [33]?
A: The GI50 was > 100 µM (inactive).

Q: What about the GI50 [34] of the same molecule?
A: Its GI50 is 64 µM (inactive).

Q: And the GI50 [35]?
A: Its GI50 is > 100 µM (inactive).

Q: And the GI50 [36]?
A: Its GI50 is 42.3 µM (inactive).

Q: What about the GI50 [37] of the same molecule?
A: The GI50 was 50.1 µM (inactive).

Q: What about the GI50 [38] of the same molecule?
A: Its GI50 is > 100 µM (inactive).

Q: What about the GI50 [39] of the same molecule?
A: The GI50 was 32.7 µM (inactive).

Q: What about the GI50 [40] of the same molecule?
A: Its GI50 is 99.1 µM (inactive).

Q: And the GI50 [41]?
A: Its GI50 is 32.9 µM (inactive).

Q: What about the GI50 [42] of the same molecule?
A: The GI50 was 45.1 µM (inactive).

Q: And the GI50 [43]?
A: The GI50 was 76 µM (inactive).

Q: What about the GI50 [44] of the same molecule?
A: The GI50 was > 100 µM (inactive).

Q: And the GI50 [45]?
A: Its GI50 is 51.4 µM (inactive).

Q: And the GI50 [46]?
A: The GI50 was 54.6 µM (inactive).

Q: And the GI50 [47]?
A: Its GI50 is > 100 µM (inactive).

Q: And the GI50 [48]?
A: Its GI50 is 46.7 µM (inactive).

Q: What about the GI50 [49] of the same molecule?
A: The GI50 was 39.7 µM (inactive).

Q: What does the source list for `CC(/C=C/c1ccccc1)=N\NC(=S)N/N=C(C)/C=C/c1ccccc1`?
A: GI50 [1]: 34.4 µM (inactive); GI50 [2]: 4.33 µM (inactive); GI50 [3]: 23.2 µM (inactive); GI50 [50]: 28.5 µM (inactive); GI50 [51]: 4.59 µM (inactive); GI50 [4]: 17.2 µM (inactive); GI50 [5]: 11 µM (inactive); GI50 [6]: 5.11 µM (inactive); GI50 [7]: 26.2 µM (inactive); GI50 [8]: 47.6 µM (inactive); GI50 [52]: 1.24 µM (inactive); GI50 [9]: 25.3 µM (inactive); GI50 [10]: 20.5 µM (inactive); GI50 [11]: 4.03 µM (inactive); GI50 [12]: 31.2 µM (inactive); GI50 [14]: 13.4 µM (inactive); GI50 [15]: 6.46 µM (inactive); GI50 [16]: 22.5 µM (inactive); GI50 [17]: 12.7 µM; GI50 [53]: 8.67 µM (inactive); GI50 [18]: 13.9 µM (inactive); GI50 [19]: 21 µM (inactive); GI50 [20]: 20.7 µM (inactive); GI50 [21]: 15.5 µM (inactive); GI50 [22]: 11 µM (inactive); GI50 [23]: 5.4 µM (inactive); GI50 [54]: 6.38 µM (inactive); GI50 [24]: > 100 µM (inactive); GI50 [25]: 23.7 µM (inactive); GI50 [55]: 13.7 µM (inactive); GI50 [26]: 8.69 µM (inactive); GI50 [27]: 5.93 µM (inactive); GI50 [56]: 4.86 µM (inactive); GI50 [29]: 16.1 µM (inactive); GI50 [30]: 15.8 µM (inactive); GI50 [31]: 17.5 µM (inactive); GI50 [32]: 28.1 µM (inactive); GI50 [33]: 15.4 µM (inactive); GI50 [34]: 5.93 µM (inactive); GI50 [35]: 4.22 µM (inactive); GI50 [36]: 17.9 µM (inactive); GI50 [57]: 20.9 µM (inactive); GI50 [37]: 23.6 µM (inactive); GI50 [38]: 12.8 µM (inactive); GI50 [58]: 10.9 µM (inactive); GI50 [39]: 23.9 µM (inactive); GI50 [40]: 24.5 µM (inactive); GI50 [41]: 19 µM (inactive); GI50 [42]: 5.64 µM (inactive); GI50 [43]: 20.8 µM (inactive); GI50 [44]: 10 µM (inactive); GI50 [45]: 13.8 µM (inactive); GI50 [46]: 21.1 µM (inactive); GI50 [47]: 13.3 µM (inactive); GI50 [49]: 25.5 µM (inactive)

Q: What does the source list for `O=C(N/N=C(COc1ccc(Cl)cc1)\N=C\c1ccncc1)c1ccncc1`?
A: GI50 [1]: > 100 µM (inactive); GI50 [59]: > 100 µM (inactive); GI50 [3]: > 100 µM (inactive); GI50 [50]: > 100 µM (inactive); GI50 [51]: > 100 µM (inactive); GI50 [4]: > 100 µM (inactive); GI50 [5]: > 100 µM (inactive); GI50 [6]: > 100 µM (inactive); GI50 [7]: > 100 µM (inactive); GI50 [8]: > 100 µM (inactive); GI50 [52]: 45.9 µM (inactive); GI50 [9]: 84.5 µM (inactive); GI50 [10]: > 100 µM (inactive); GI50 [11]: > 100 µM (inactive); GI50 [12]: > 100 µM (inactive); GI50 [13]: > 100 µM (inactive); GI50 [14]: > 100 µM (inactive); GI50 [15]: > 100 µM (inactive); GI50 [17]: > 100 µM; GI50 [53]: > 100 µM (inactive); GI50 [18]: 96.4 µM (inactive); GI50 [19]: > 100 µM (inactive); GI50 [20]: > 100 µM (inactive); GI50 [21]: > 100 µM (inactive); GI50 [22]: > 100 µM (inactive); GI50 [23]: > 100 µM (inactive); GI50 [54]: > 100 µM (inactive); GI50 [24]: > 100 µM (inactive); GI50 [25]: > 100 µM (inactive); GI50 [55]: 57.1 µM (inactive); GI50 [26]: > 100 µM (inactive); GI50 [56]: > 100 µM (inactive); GI50 [28]: 83.8 µM (inactive); GI50 [29]: > 100 µM (inactive); GI50 [30]: > 100 µM (inactive); GI50 [31]: > 100 µM (inactive); GI50 [32]: > 100 µM (inactive); GI50 [33]: > 100 µM (inactive); GI50 [34]: > 100 µM (inactive); GI50 [35]: > 100 µM (inactive); GI50 [36]: > 100 µM (inactive); GI50 [57]: > 100 µM (inactive); GI50 [37]: > 100 µM (inactive); GI50 [38]: > 100 µM (inactive); GI50 [58]: > 100 µM (inactive); GI50 [39]: > 100 µM (inactive); GI50 [40]: > 100 µM (inactive); GI50 [41]: > 100 µM (inactive); GI50 [42]: > 100 µM (inactive); GI50 [43]: > 100 µM (inactive); GI50 [44]: > 100 µM (inactive); GI50 [46]: > 100 µM (inactive); GI50 [47]: > 100 µM (inactive); GI50 [48]: 43.3 µM (inactive); GI50 [49]: > 100 µM (inactive)
